Legend:
PTEN, RhoB, MnSOD [1] = conditions: HCT-116 tumors, 100 μg or 200 μg per mouse, 21 days of treatment
Experimental: HCT-116 colorectal tumor cells were grafted onto nude mice. Tumor-bearing mice were then treated with solvent control or different concentrations of (100 μg, 200 μg) C19H24N3O5S5Pr. After 21 days of treatment, the mice were sacrificed, after which tumors were harvested and proteins extracted for Western Blot analysis.

PTEN, RhoB, MnSOD [2] = conditions: SHEP-1 and MDA-MB-231 cells, 5 μM and 10 μM, dose-dependent
Experimental: Whole cell lysates were prepared with RIPA lysis buffer containing 10 mM Tris-HCL pH7.4, 30 mM NaCl, 1 mM EDTA, 1% Nonidet P-40, supplemented with 1 mM Na3VO4, 1 μg/ml leupeptin, 1 μg/ml pepstatin A, 1 μg/ml aprotinin and 1 mM PMSF before use. Protein concentration was determined for each sample and equal amounts of protein were boiled for 5 min for other proteins, with 1×SDS sample buffer and resolved by 8% SDS-PAGE. Thereafter, proteins were transferred onto nitrocellulose membrane, blocked for 1 h at room temperature with 5% non-fat milk, and incubated overnight at 4° C. with the primary antibody. After probing with secondary antibody for 1 hr at 25° C., protein bands were detected by using the Supersignal West Pico Chemiluminescence (Pierce). β-actin antibody was used as a loading control.
Referring to FIGS. 14 and 15, SHEP-1 neuroblastoma cells and MDA-MB-231 breast cancer cells were treated with different concentrations of C19H24N3O5S5Pr at 5 μM and 10 μM for 4 hr, 8 hr, 18 hr, 241r, 48 hr and 72 hr. Whole cell extracts were prepared and protein expression was examined by Western Blot analysis. 70 μg of total protein was loaded per lane for each experiment. The levels of protein were determined by using specific primary antibody followed by peroxidise-conjugated secondary antibody and visualization by enhanced chemiluminescence.

[3] = target: T1, phosphorylation-defective mutant of PPARγ (GFP-PPARg S82A) (Mus musculus, UniProt P37238, S112A); test: 3×PPRE luciferase reporter with phosphorylation-defective mutant PPARγ; type: cell-based; conditions: SHSY5Y cells, 10 uM, 18 hours
T1 construct: expressed in transfected cells; host or cells: SHSY5Y neuroblastoma cells
T1 sequence (P37238 1-475 isoform P37238-2 S82A): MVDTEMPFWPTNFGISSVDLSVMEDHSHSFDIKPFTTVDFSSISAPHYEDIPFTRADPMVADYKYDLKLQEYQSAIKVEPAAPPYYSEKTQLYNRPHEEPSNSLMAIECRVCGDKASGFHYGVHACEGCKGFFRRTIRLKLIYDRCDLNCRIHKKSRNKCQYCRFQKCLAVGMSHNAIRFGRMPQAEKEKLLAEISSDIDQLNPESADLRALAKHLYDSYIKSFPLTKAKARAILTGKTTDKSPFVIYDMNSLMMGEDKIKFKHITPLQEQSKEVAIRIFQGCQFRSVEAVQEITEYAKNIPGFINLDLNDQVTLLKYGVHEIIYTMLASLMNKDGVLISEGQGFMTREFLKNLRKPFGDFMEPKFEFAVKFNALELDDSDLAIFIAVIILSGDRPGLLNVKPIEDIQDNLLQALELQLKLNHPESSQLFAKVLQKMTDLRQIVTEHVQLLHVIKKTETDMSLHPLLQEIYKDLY
Experimental: SHSY5Y neuroblastoma cells were transiently co-transfected with either a plasmid encoding wild type PPARγ or a phosphorylation-defective mutant of PPARγ (GFP-PPARg S82A), 3×PPRE luciferase plasmid and plasmid encoding renilla for transfection efficiency. Forty eight hours following transfection, cells were exposed to 10 uM of C19H24N3O5S5Pr for 18 hours.

[4] = tested on: AIF (apoptosis inducing factor); conditions: SHEP-1 cells, 5 μM and 10 μM, 24 hr
Experimental: Different concentrations (5 μM and 10 μM) of C19H24N3O5S5Pr (indicated as “Pr-MPO”) were administered into SHEP-1 cancer cells. The detection of AIF in the cytosol and nucleus fractions was determined by Western Blot analysis at 18 hr and 24 hr of treatment with C19H24N3O5S5Pr.

PTEN and MnSOD mRNA = conditions: SHEP-1 cells, 10 uM, 4 hr, 8 hr and 18 h
Experimental: This example illustrates the effect of C19H24N3O5S5Pr on the mRNA levels of PTEN and MnSOD in SHEP-1 cancer cells. mRNA levels of PTEN and MnSOD were assayed by real time PCR after treatment with 10 uM Pr-MPO for 4 hr, 8 hr and 18 h.

pCMX-Gal-mPPARγ-LBD = target: T2, pCMX-Gal-mPPARγ-LBD (Mus musculus, UniProt P37238); test: Gal4 chimeric receptor luciferase reporter (Method 2); type: cell-based; conditions: SHEP-1 cells, 3 μM, 5 μM, 10 μM and 20 μM
T2 construct: expressed in transfected cells; host or cells: SHEP-1 cells
T2 sequence (P37238 238-503 limits assumed): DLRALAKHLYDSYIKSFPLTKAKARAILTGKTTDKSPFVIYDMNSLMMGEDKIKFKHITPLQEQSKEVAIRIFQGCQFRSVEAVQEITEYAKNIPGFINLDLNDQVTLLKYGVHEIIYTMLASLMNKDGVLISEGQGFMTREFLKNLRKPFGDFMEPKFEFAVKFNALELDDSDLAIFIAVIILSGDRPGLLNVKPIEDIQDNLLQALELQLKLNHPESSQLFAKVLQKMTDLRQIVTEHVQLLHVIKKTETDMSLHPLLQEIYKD
From the text: In Method 2, SHEP-1 cancer cells were transfected with a reporter gene containing four copies of a Gal4 binding site (pMH100x4-TK-Luc) and chimeric receptors of a single PPAR isoform (pCMX-Gal-mPPARα-LBD, pCMX-Gal-mPPARδ-LBD, or pCMX-Gal-mPPARγ-LBD, respectively) as previously described in Kim et al, Toxicological Sciences, 85, (2005), pp. 585-593. When C19H24N3O5S5Pr binds to the ligand binding domain (LBD) of the chimeric receptor, the DNA binding domain of Gal4 binds to co-transfected Gal4 binding site and initiates transcription of the firefly luciferase.

PARP = conditions: SHEP-1 cells, 5 μM and 10 μM, 24 hrs

CS(C)=O.CS(C)=O.[O-][n+]1ccccc1[S-].[O-][n+]1ccccc1[S-].[O-][n+]1ccccc1[S-].[Pr+3] [C19H24N3O5S5Pr, praseodymium (2-mercaptopyridine N-oxide)(dimethylsulfoxide)]
PTEN, RhoB and MnSOD protein expression in tumors (PTEN, RhoB, MnSOD [1]): regulated | MnSOD protein expression (PTEN, RhoB, MnSOD [2]): downregulated | PTEN protein expression (PTEN, RhoB, MnSOD [2]): upregulated | RhoB protein expression (PTEN, RhoB, MnSOD [2]): upregulated | activation of phosphorylation-defective mutant PPARγ versus wild type [3]: significant activation of phosphorylation-defective mutant PPARγ | AIF translocation [4]: AIF was translocated into the nucleus | mRNA levels of PTEN and MnSOD (PTEN and MnSOD mRNA): also found at the mRNA level | luciferase activity, PPARγ LBD chimeric receptor (pCMX-Gal-mPPARγ-LBD): induction of luciferase activity | PARP cleavage (80 kDa fragment) (PARP): PARP cleavage

Reference: US8691851B2, “Lanthanide metal complexes useful in treating cancer” (National University of Singapore, priority 2009, dated 2014)
